Series [1] can be described thus: 4 plates test (percentage of desinibition observed in the mouse). The settings on record: for change in vivo at 1 mg/kg / change in vivo at 3 mg/kg / change in vivo at 10 mg/kg / change in vivo at 30 mg/kg: po, 1 h; for change in vivo at 1 mg/kg: read-out: percentage of desinibition (ACTIVITY, 1 mg/kg p.o.); for change in vivo at 3 mg/kg: read-out: percentage of desinibition (ACTIVITY, 3 mg/kg p.o.); for change in vivo at 10 mg/kg: read-out: percentage of desinibition (ACTIVITY, 10 mg/kg p.o.); for change in vivo at 30 mg/kg: 30 mg/kg p.o. It is filed as in vivo. How it is done:
This activity has been tested by the 4 plates test (Aron C. These de Medecine--Paris 1970; Boissier JR--Simon P. and Aron C., A new method for rapid screening of minor tranquillizers in mice, Europ. J. Pharmacol. 1968, 4, 145-151). The substances are administered in several doses (0.3, 1.0, 3.0, 10 and 30 mg/kg) per os, 60 minutes before the test.
The results, which give the percentage of desinibition observed in the mouse, are shown as Examples III-XVIII. At the same doses, the greater the percentage the higher the activity of the piperazine. The results for two known anxiolytic agents are set forth in Examples XIX and XX.

The nature of another series: LD 50 toxicity, oral. Conditions: in vivo, p.o., tested as hydrochlorides.
The mark [2] stands for this setting: mouse, 60 minutes before the test.
Setting [3] is: mouse, 1 mg/kg p.o., 60 minutes before the test.
The mark [4] stands for this setting: mouse, 3 mg/kg p.o., 60 minutes before the test.
[5] abbreviates: mouse, 10 mg/kg p.o., 60 minutes before the test.

Where two headings read alike, the source gives them in different places.

On to `OCCN1CCN(c2cccc(SC(F)(F)F)c2)CC1` [Example 3, [4-(3'-trifluoromethylthiophenyl)-piperazino]-ethanol], for which, in series [1] (setting [2]), the “percentage of desinibition (ACTIVITY, 0.3 mg/kg p.o.)” value is reported as “+118%” and the change in vivo at 30 mg/kg stood at 248%. In series [1] (setting [3]), the change in vivo at 1 mg/kg is 190%. The change in vivo at 3 mg/kg in series [1] (setting [4]) amounted to 230%. The change in vivo at 10 mg/kg in series [1] (setting [5]) was determined as 335%. In addition, in the series “LD 50 toxicity, oral”, the LD50 is 500 mg/kg.
Turning to `OCCN1CCN(c2cccc(C(F)(F)F)c2)CC1` [Example 4], in series [1] (setting [5]), the change in vivo at 10 mg/kg is 174%. The compound also registered a change in vivo at 30 mg/kg in series [1] (setting [2]) of 226%. The LD50 in “LD 50 toxicity, oral” is 740 mg/kg.
As to `OCCN1CCN(c2cccc(OC(F)(F)F)c2)CC1` [Example 5], the change in vivo at 1 mg/kg in series [1] (setting [3]) is 8%. Moreover, the change in vivo at 3 mg/kg in series [1] (setting [4]) worked out at 9%. Further, in series [1] (setting [5]), the change in vivo at 10 mg/kg turned out to be 14%. This compound showed a change in vivo at 30 mg/kg in series [1] (setting [2]) of 88%. In the series “LD 50 toxicity, oral”, this compound yielded an LD50 of 575 mg/kg.
As to `OCCN1CCN(c2cccc(Cl)c2)CC1` [Example 6], the change in vivo at 1 mg/kg in series [1] (setting [3]) is 23%. Also, the change in vivo at 3 mg/kg in series [1] (setting [4]) turned out to be 50%. Besides, in series [1] (setting [5]), the change in vivo at 10 mg/kg was 54%. Also, the LD50 in the series “LD 50 toxicity, oral” stood at 750 mg/kg.
On to `OCCN1CCN(c2ccccc2)CC1` [Example 7], for which the change in vivo at 1 mg/kg in series [1] (setting [3]) was 39%. In addition, the change in vivo at 3 mg/kg in series [1] (setting [4]) was found to be 2%. This compound came in with an LD50 in “LD 50 toxicity, oral” of 525 mg/kg.
In the case of `CC(=O)OCCN1CCN(c2cccc(SC(F)(F)F)c2)CC1` [Example 8, (4-m-trifluoromethylthiophenyl-piperazino)-ethyl acetate], in series [1] (setting [2]), the “percentage of desinibition (ACTIVITY, 0.3 mg/kg p.o.)” value is “+27%” and the change in vivo at 30 mg/kg was determined as 154%. Moreover, the change in vivo at 1 mg/kg in series [1] (setting [3]) worked out at 88%. Also, the change in vivo at 3 mg/kg in series [1] (setting [4]) is 191%. Moreover, the change in vivo at 10 mg/kg in series [1] (setting [5]) was 312%. The same compound showed an LD50 in “LD 50 toxicity, oral” of 510 mg/kg.
For `CC(=O)OCCN1CCN(c2cccc(C(F)(F)F)c2)CC1` [Example 9], the change in vivo at 1 mg/kg in series [1] (setting [3]) was 24%. The change in vivo at 3 mg/kg in series [1] (setting [4]) amounted to 49%. In series [1] (setting [5]), the change in vivo at 10 mg/kg is 220%. Besides, the change in vivo at 30 mg/kg in series [1] (setting [2]) worked out at 156%. In addition, in “LD 50 toxicity, oral”, the LD50 is 925 mg/kg.
Consider `Nc1ccccc1C(=O)OCCN1CCN(c2cccc(C(F)(F)F)c2)CC1` [Example 11], for which the change in vivo at 1 mg/kg in series [1] (setting [3]) is 35%. Further, the change in vivo at 3 mg/kg in series [1] (setting [4]) stood at 63%. The change in vivo at 10 mg/kg in series [1] (setting [5]) amounted to 182%. For the same compound, the change in vivo at 30 mg/kg in series [1] (setting [2]) is 336%. Further, the 50% lethal dose (LD50) in “LD 50 toxicity, oral” amounted to 3000 mg/kg.
Turning to `COc1ccc(Cl)cc1C(=O)OCCN1CCN(c2cccc(C(F)(F)F)c2)CC1` [Example 12], the change in vivo at 10 mg/kg in series [1] (setting [5]) was determined as 65%. This compound also gave an LD50 in the series “LD 50 toxicity, oral” of 1800 mg/kg.
For the compound `CNC(=O)OCCN1CCN(c2cccc(SC(F)(F)F)c2)CC1` [Example 13], in series [1] (Mus musculus), the change in vivo at 3 mg/kg came out at 49% and the change in vivo at 10 mg/kg amounted to 152%.
`CN(C)C(=O)OCCN1CCN(c2cccc(SC(F)(F)F)c2)CC1` [Example 14]: in series [1] (Mus musculus), the change in vivo at 1 mg/kg was determined as 2% and the change in vivo at 10 mg/kg was determined as 3%.
With `CCCCNC(=O)OCCN1CCN(c2cccc(SC(F)(F)F)c2)CC1` [Example 15], in series [1] (setting [3]), the change in vivo at 1 mg/kg came out at 3%. Moreover, in series [1] (setting [4]), the change in vivo at 3 mg/kg came to 109%. In addition, the change in vivo at 10 mg/kg in series [1] (setting [5]) worked out at 64%.
For the compound `O=C(Nc1ccccc1)OCCN1CCN(c2cccc(C(F)(F)F)c2)CC1` [Example 17], in series [1] (setting [5]), the change in vivo at 10 mg/kg was found to be 9%. For the same compound, in series [1] (setting [2]), the change in vivo at 30 mg/kg was found to be 30%.
For `O=C(Nc1ccccc1)OCCN1CCN(c2cccc(SC(F)(F)F)c2)CC1` [Example 18], in series [1] (setting [2]), the “percentage of desinibition (ACTIVITY, 0.3 mg/kg p.o.)” value is on record as “+15%” and the change in vivo at 30 mg/kg turned out to be 532%. In series [1] (setting [3]), the change in vivo at 1 mg/kg stood at 23%. In addition, the change in vivo at 3 mg/kg in series [1] (setting [4]) was 63%. Also, in series [1] (setting [5]), the change in vivo at 10 mg/kg was 304%.
With `CC(C)(C)C(=O)OCCN1CCN(c2cccc(SC(F)(F)F)c2)CC1` [Example 21], the change in vivo at 1 mg/kg in series [1] (setting [3]) turned out to be 73%. Further, the change in vivo at 3 mg/kg in series [1] (setting [4]) worked out at 122%. Besides, the change in vivo at 10 mg/kg in series [1] (setting [5]) was 196%.
On the same counts, the results for `CNC1=Nc2ccc(Cl)cc2C(c2ccccc2)=[N+]([O-])C1` [chlordiazepozide, reference compound] are 43%, 86% and 24%.
Take `CCCC(C)(COC(N)=O)COC(N)=O` [meprobamate, reference compound]: in series [1] (setting [4]), the change in vivo at 3 mg/kg was determined as 53%. In series [1] (setting [5]), the change in vivo at 10 mg/kg is 38%. For the same compound, in series [1] (setting [2]), the change in vivo at 30 mg/kg was 142%.

(Values after patent US4202898A, “Method of treating anxiety and depression” (priority 1978, dated 1980).)
